The values below come from US20130177904A1, “ARNT ISOFORM 3 AS A PREDICTOR OF AMINOFLAVONE RESPONSIVENESS IN CANCER CELLS” (UNIVERSITY OF MARYLAND, BALTIMORE, priority 2010, published 2013).

One series has as its system MCF7. Description: Cell Death Detection ELISA PLUS apoptosis assay. It is filed as cell-based, Human. As to the method:
(§1) To determine the induction of apoptosis, the Cell Death Detection ELISA^PLUS Assay (Roche Cat. No. 11774425001), which determines the degree of cytoplasmic mono- and oligonucleosomes, was employed as described by the manufacturer. […] Cells were then concentrated by centrifugation at 200 g for 10 min at room temperature and the supernatant was discarded. Cells were lysed, and cytoplasmic fractions containing fragmented DNA were transferred to streptavidin-coated microtiter plates preincubated with a biotinylated monoclonal anti-histone antibody. The amount of fragmented nucleosomes bound to anti-histone antibody was evaluated by peroxidase-conjugated monoclonal antibody using ABTS (2,2-azino-di[3-ethylbenzthiazoline sulfonate-6-diammonium salt]) as a substrate, and read in a microplate reader at 405 nm. Non-treated cells were employed as controls.

For a further series, the system named is MDA-MBA-468. Kind of series: Cell Death Detection ELISA PLUS apoptosis assay. To be noted: MDA-MBA-468, 48 hours post-AF treatment, 100 nM AF per legend FIG. 2A. It counts as cell-based, Human. How it is done:
as §1

The test system of another series is T47D. Kind of series: Cell Death Detection ELISA PLUS apoptosis assay. It counts as cell-based, Human. How it is done:
as §1

Series [1] concerns PS2 and Cyp1A1 promoters in T47D. Description: Chromatin Immunoprecipitation (ChIP), AhR and ER crosstalk. It counts as cell-based, Human. To be noted: 4 or 8 hours post-treatment with AF, FIG. 3. The source says:
(§2) Considering that the AhR and ER are both nuclear receptors and act as transcription factors, modulation of ER action after AhR activation by AF (“crosstalk”) was theorized to contribute to overall AF effects in ER+ cell lines. Therefore, Chromatin Immunoprecipitation (ChIP) was employed to study the potential crosstalk of AhR and ER after AF action at the PS2 promoter, a classical ER/estradiol inducible gene, and on Cyp1A1, a classical AF/AhR inducible gene known to be induced by AF. Transcription components studied were the AhR, ER, ARNT (the AhR transcriptional partner), RNA Polymerase II and CBP. CBP is a histone acetyl transferase associated with productive AhR induction of gene expression (Hestermann, E. V. and M. Brown, Mol Cell Biol, 23(21):7920-5 (2003)). In both T47D and MCF7 ER+ cell lines, all transcription components tested were present on the Estradiol inducible PS2 gene promotor, including the AhR. On the Cyp1A1 promotor, all the apparatus excluding CBP was present.
(§3) ChIP analysis was performed employing the Chromatin Immunoprecipitation (ChIP) Assay Kit (Millipore) as per company recommendations. […]
(§4) The resultant DNA was analyzed by PCR employing GoTaq Green Master Mix (Promega) using the following protocol: 94° C. for 2 minutes for initial melting, followed by 35 cycles at 94° C. for 30 seconds, 55° C. for 40 seconds, 72° C. […]

The test system of series [2] is PS2 and Cyp1A1 promoters in MCF7. The series is described as above. Particulars: MCF7, 4 or 8 hours post-treatment with AF, FIG. 3. It is filed as cell-based, Human.
Text: as §2, §3, §4

The test system of series [3] is caspases 3/7 in MDA-MBA-468. Kind of series: Caspase Glo-3/7 Assay. It is filed as cell-based, Human. To be noted: MDA-MBA-468, relative to vehicle treated cells, FIG. 2C. How it is done: (§5) The Caspase Glo-3/7 Assay (Promega) was used to measure the combined activities of caspases-3 and -7. In brief, cells were seeded in a white-walled 96-well plate (Nunc) at a density of 2,000 cells/well and allowed to attach overnight. AF was added the following day in final concentrations of 0.1 nM to 100 μM in replicas of 8. Caspase activity was measured 5 days later by adding the Caspase Glo-3/7 reagent to the plate and incubating for another 2 hours. Caspase cleavage results in the release a substrate for luciferase that was measured using a LumiCount luminometer (Packard). Caspase activity levels were normalized to the amount of viable cells, determined by the CellTiter-Glo Luminescent Cell Viability Assay (Promega) performed in parallel to the caspase assay. Data analysis to obtain the mean and standard error as well as graphing employed Excel® (Microsoft Corporation).

The test system of another series is caspases 3/7 in MCF7. Description: Caspase Glo-3/7 Assay. It counts as cell-based, Human. To be noted: MCF7, relative to vehicle treated cells, FIG. 2C. As to the method: as §5
Series [4] has as its system caspases 3/7 in MDA-MB-231. Description: Caspase Glo-3/7 Assay. It counts as cell-based, Human. To be noted: MDA-MB-231, relative to vehicle treated cells, FIG. 2C. As to the method:
as §5

The subject of a further series is caspases 3/7 in T47D. Description: Caspase Glo-3/7 Assay. It is filed as cell-based, Human. Particulars: relative to vehicle treated cells, FIG. 2C. As to the method:
as §5

A further series deals with TK10. To be noted: TK10 renal cell line, NIH dose response data; cited from earlier work.
A further series concerns CAKi1. Particulars: CAKi1 renal cell line, NIH dose response data; cited from earlier work.

On to `Cc1c(F)c(N)c2c(=O)cc(-c3ccc(N)c(F)c3)oc2c1F` [AF, 5-amino-2-(4-amino-3-fluorophenyl)-6,8-difluoro-7-methylchromen-4-one], for which the “increase (cytoplasmic nucleosomes; printed as increase in inhibition of cell proliferation)” value with MCF7 (1 μM AF, MCF7, FIG. 2A) is recorded as above 4.5 fold; in the series with T47D (1 μM AF, FIG. 2A), above 4.5 fold. Besides, the induction of apoptosis entry is given as “prominent induction of apoptosis” in the series with MCF7 (MCF7, 48 hours post-AF treatment, 100 nM AF per legend FIG. 2A); “prominent induction of apoptosis” in the series with MDA-MBA-468; “prominent induction of apoptosis” in the series on T47D (48 hours post-AF treatment, 100 nM AF per legend FIG. 2A). Further, the “transcriptional adjustment at PS2 and Cyp1A1 promoters (ChIP)” value is “dissociation of ER-related transcriptional control elements from the PS2 estrogenic promoter and their association with the Cyp1A1 promotor” in series [1]; “dissociation of ER-related transcriptional control elements from the PS2 estrogenic promoter and their association with the Cyp1A1 promotor” in series [2]. Moreover, the “induction of caspases 3/7 (combined activity)” value in [3] was “marked induction”; with caspases 3/7 in MCF7, “not activated”; in the series with caspases 3/7 in T47D, “marked induction”. Besides, the “Caspases 3 and 7 activity” value in series [4] is “do not”. In addition, the AF sensitivity result in the series on TK10 and with CAKi1 was “AF sensitive” each time.
